# Laboratory results published in patent US11999732B2, “P2X3 receptor antagonists” (RECORDATI INDUSTRIA CHIMICA E FARMACEUTICA SPA, priority 2018, dated 2024).
# Target: T1, human P2X3 receptor (Homo sapiens, UniProt P56373)
# T1 construct: expressed in transfected cells; host or cells: CHO-K1
# T1 sequence (P56373 1-397): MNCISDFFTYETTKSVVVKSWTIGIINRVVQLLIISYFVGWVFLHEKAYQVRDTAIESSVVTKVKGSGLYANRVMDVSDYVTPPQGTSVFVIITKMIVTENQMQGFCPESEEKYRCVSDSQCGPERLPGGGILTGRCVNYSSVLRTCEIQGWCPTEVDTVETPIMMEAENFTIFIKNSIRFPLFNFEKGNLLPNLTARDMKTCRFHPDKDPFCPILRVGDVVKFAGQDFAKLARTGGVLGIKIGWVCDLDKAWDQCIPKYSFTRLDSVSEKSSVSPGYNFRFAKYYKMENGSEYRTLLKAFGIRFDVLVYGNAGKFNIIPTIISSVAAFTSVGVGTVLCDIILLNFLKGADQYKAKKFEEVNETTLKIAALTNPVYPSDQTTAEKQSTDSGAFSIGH
# Experiment: Calcium luminescence (photoprotein) assay in CHO-K1 cells co-expressing human P2X3 receptor, α,β-Met-ATP stimulation, FLEXSTATION readout
# Format: cell-based
# Settings: Table 6; human P2X3 receptor antagonist activity, CHO-K1 cells, α,β-Met-ATP; read-out: h-P2X3 IC50
# Experimental: The assay for the human purinergic P2X3 receptor has been adapted to the internal screening instrumentation using the FLEXSTATION as reader and a photoprotein as luminescent readout. The assay consists of CHO-K1 cells recombinantly co-expressing the human P2rx3 receptor and a Ca^2+ sensitive photoprotein. Cells are maintained in DMEM F-12 (1:1) mixture (LONZA cat. no BE04-687F/U1) supplemented with 9 mL of 100 mM Sodium Pyruvate (LONZA cat. no BE13-115E), 29 mL of 7.5% Sodium Bicarbonate (LONZA cat. no: BE17-613E), 5.5 mL of 1 M Hepes (LONZA cat. no BE17-737E), 5 mL of 100× Penicillin/Streptomycin (LONZA cat. no DE17-602E) and 50 mL of Fetal Bovine Serum (Sigma cat. no F7524), 1 mg/mL G418 (Sigma cat. no G8168) and 5 µg/ml puromycin (Sigma cat. no P9620). Standard propagation conditions consist of seeding in a P75 flask twice a week, recovering about 20×10^6 cells, corresponding to about 80% confluency. Cells were seeded into black-walled clear bottom 96 well plates at a density of 40000 cells/well in a Tyrode's buffer (Standard Tyrode's buffer: in house solution, 130 mM NaCl, 5 mM KCl, 2 mM CaCl2, 5 mM NaHCO3, 1 mM MgCl2, 20 mM HEPES, pH 7.4). After 24 h the culture medium was replaced with 200 μL/well of coelenterazine in Tyrode's buffer (Coelenterazine: from BIOSYNTH (cat. no C-7001). 10 mM stock solution was prepared in DMSO and glutathione and stored at −20° C.). The plates were incubated for 4 hours at 37° C., and injected with 10 μL/well of test compounds at 25× concentration in Tyrode's buffer. After 4 minutes a second injection of 50 μL/well of 5× α,β-Met-ATP in Tyrode's buffer (α,β-Met-ATP: from Tocris (cat. no 3209), was dissolved at 100 mM in water and stored in aliquots at −20° C.) was performed and the signal of the emitted luminescence was recorded by FLEXSTATION III (Molecular Devices).
# The inhibition curves of the tested compounds at cloned P2X3 receptor were determined by nonlinear regression analysis using software Prism 4.0 (Graphpad, San Diego, Calif.). The IC50 values and pseudo-Hill slope coefficients were estimated by the program.
row,SMILES,IC50
1,"COc1ccc(CN2C(=O)N3C(=NCC3C(C)C)c3ncc(N4CCOCC4)cc32)cc1 (stereo not shown) [Example 1, 6-(4-methoxybenzyl)-8-(morpholin-4-yl)-3-(propan-2-yl)-2,6-dihydroimidazo[1,2-c]pyrido[2,3-e]pyrimidin-5(3H)-one]",5220 nM
2,COc1cc(CN2C(=O)N3C(=NCC3C)c3ncc(N4CCOCC4)cc32)cc(OC)c1 (stereo not shown) [Example 2],1190 nM
3,COc1cc(CN2C(=O)N3CC(C)N=C3c3ncc(N4CCOCC4)cc32)cc(OC)c1 (stereo not shown) [Example 3],1160 nM
4,"COc1cc(CN2C(=O)N3CC(C(C)C)N=C3c3ncc(N4CCOCC4)cc32)cc(OC)c1 (stereo not shown) [Example 4, 6-(3,5-dimethoxybenzyl)-8-(morpholin-4-yl)-2-(propan-2-yl)-2,6-dihydroimidazo[1,2-c]pyrido[2,3-e]pyrimidin-5(3H)-one]",178 nM
5,"CCC1CN2C(=O)N(Cc3cc(OC)cc(OC)c3)c3cc(N4CCOCC4)cnc3C2=N1 (stereo not shown) [Example 5, 6-(3,5-dimethoxybenzyl)-2-ethyl-8-(morpholin-4-yl)-2,6-dihydroimidazo[1,2-c]pyrido[2,3-e]pyrimidin-5(3H)-one]",278 nM
6,"CCC1CN=C2c3ncc(N4CCOCC4)cc3N(Cc3cc(OC)cc(OC)c3)C(=O)N21 (stereo not shown) [Example 6, 6-(3,5-dimethoxybenzyl)-3-ethyl-8-(morpholin-4-yl)-2,6-dihydroimidazo[1,2-c]pyrido[2,3-e]pyrimidin-5(3H)-one]",504 nM
7,"COc1cc(CN2C(=O)N3CCN=C3c3ncc(N4CCOCC4)cc32)cc(OC)c1 [Example 7, 6-(3,5-dimethoxybenzyl)-8-(morpholin-4-yl)-2,6-dihydroimidazo[1,2-c]pyrido[2,3-e]pyrimidin-5(3H)-one]",1640 nM
8,"COc1cc(CN2C(=O)N3C(=NC(C)C3C)c3ncc(N4CCOCC4)cc32)cc(OC)c1 (stereo not shown) [Example 8, 6-(3,5-dimethoxybenzyl)-2,3-dimethyl-8-(morpholin-4-y1)-2,6-dihydroimidazo[1,2-c]pyrido[2,3-e]pyrimidin-5(3H)-one]",636 nM
9,"O=C1N2CC(C3CC3)N=C2c2ncc(N3CCOCC3)cc2N1Cc1ccc(Cl)cc1 (stereo not shown) [Example 10, 6-(4-chlorobenzyl)-2-cyclopropyl-8-(morpholin-4-yl)-2,6-dihydroimidazo[1,2-c]pyrido[2,3-e]pyrimidin-5(3H)-one]",241 nM
10,"COCC1CN2C(=O)N(Cc3ccc(Cl)cc3)c3cc(N4CCOCC4)cnc3C2=N1 (stereo not shown) [Example 11, 6-(4-chlorobenzyl)-2-(methoxymethyl)-8-(morpholin-4-y1)-2,6-dihydroimidazo[1,2-c]pyrido[2,3-e]pyrimidin-5(3H)-one]",358 nM
11,"O=C1N(Cc2ccc(Cl)cc2)c2cc(N3CCOCC3)cnc2C2=NCC(C3CC3)N12 (stereo not shown) [Example 12, 6-(4-chlorobenzyl)-3-cyclopropyl-8-(morpholin-4-yl)-2,6-dihydroimidazo[1,2-c]pyrido[2,3-e]pyrimidin-5(3H)-one]",428 nM
12,"COCC1CN=C2c3ncc(N4CCOCC4)cc3N(Cc3ccc(Cl)cc3)C(=O)N21 (stereo not shown) [Example 13, 6-(4-chlorobenzyl)-3-(methoxymethyl)-8-(morpholin-4-y1)-2,6-dihydroimidazo[1,2-c]pyrido[2,3-e]pyrimidin-5(3H)-one]",1260 nM
13,"CC(C)C1CN2C(=O)N(Cc3ccc(Cl)cc3)c3cc(N4CC5(COC5)C4)cnc3C2=N1 (stereo not shown) [Example 15, 6-(4-chlorobenzyl)-8-(2-oxa-6-azaspiro[3.3]heptan-6-yl)-2-(propan-2-y1)-2,6-dihydroimidazo[1,2-c]pyrido[2,3-e]pyrimidin-5(3H)-one]",1430 nM
14,"COC1CCN(c2cnc3c(c2)N(Cc2ccc(Cl)cc2)C(=O)N2CC(C(C)C)N=C32)CC1 (stereo not shown) [Example 16, 6-(4-chlorobenzyl)-8-(4-methoxypiperidin-1-yl)-2-(propan-2-yl)-2,6-dihydroimidazo[1,2-c]pyrido[2,3-e]pyrimidin-5(3H)-one]",2230 nM
15,"COCC1CN(c2cnc3c(c2)N(Cc2ccc(Cl)cc2)C(=O)N2CC(C(C)C)N=C32)C1 (stereo not shown) [Example 17, 6-(4-chlorobenzyl)-8-[3-(methoxymethyl)azetidin-1-yl]-2-(propan-2-y1)-2,6-dihydroimidazo[1,2-c]pyrido[2,3-e]pyrimidin-5(3H)-one]",690 nM

# The next lines start with the values.
row,IC50,SMILES
1,301 nM,"COc1ccc(CN2C(=O)N3CC(C(C)C)N=C3c3ncc(N4CCOCC4)cc32)cc1 (stereo not shown) [Example 18, 6-(4-methoxybenzyl)-8-(morpholin-4-yl)-2-(propan-2-yl)-2,6-dihydroimidazo[1,2-c]pyrido[2,3-e]pyrimidin-5(3H)-one]"
2,5510 nM,"COc1ccc(CN2C(=O)N3CC(C(C)C)N=C3c3ncc(N4CC5(COC5)C4)cc32)cc1 (stereo not shown) [Example 19, 6-(4-methoxybenzyl)-8-(2-oxa-6-azaspiro[3.3]heptan-6-yl)-2-(propan-2-yl)-2,6-dihydroimidazo[1,2-c]pyrido[2,3-e]pyrimidin-5(3H)-one]"
3,1140 nM,COc1ccc(CN2C(=O)N3CC(C(C)C)N=C3c3ncc(N4CCC(CO)CC4)cc32)cc1 (stereo not shown) [Example 20]
4,7190 nM,"COc1ccc(CN2C(=O)N3CC(C(C)C)N=C3c3ncc(N4CCC(N(C)C)CC4)cc32)cc1 (stereo not shown) [Example 21, 8-[4-(dimethylamino)piperidin-1-yl]-6-(4-methoxybenzyl)-2-(propan-2-yl)-2,6-dihydroimidazo[1,2-c]pyrido[2,3-e]pyrimidin-5(3H)-one]"
5,143 nM,"COc1cc(CN2C(=O)N3CC(CC(C)C)N=C3c3ncc(N4CCOCC4)cc32)cc(OC)c1 (stereo not shown) [Example 22, 6-(3,5-dimethoxybenzyl)-2-(2-methylpropyl)-8-(morpholin-4-yl)-2,6-dihydroimidazo[1,2-c]pyrido[2,3-e]pyrimidin-5(3H)-one]"
6,506 nM,"COc1ccc(CN2C(=O)N3CC(C4CCCCC4)N=C3c3ncc(N4CCOCC4)cc32)cc1 (stereo not shown) [Example 23, 2-cyclohexyl-6-(4-methoxybenzyl)-8-(morpholin-4-yl)-2,6-dihydroimidazo[1,2-c]pyrido[2,3-e]pyrimidin-5(3H)-one]"
7,515 nM,"COc1ccc(CN2C(=O)N3C(=NCC3C3CCCCC3)c3ncc(N4CCOCC4)cc32)cc1 (stereo not shown) [Example 24, 3-cyclohexyl-6-(4-methoxybenzyl)-8-(morpholin-4-yl)-2,6-dihydroimidazo[1,2-c]pyrido[2,3-e]pyrimidin-5(3H)-one]"
8,389 nM,"O=C1N2CC(C3CCCCC3)N=C2c2ncc(N3CCOCC3)cc2N1Cc1ccc(Cl)cc1 (stereo not shown) [Example 25, 6-(4-chlorobenzyl)-2-cyclohexyl-8-(morpholin-4-yl)-2,6-dihydroimidazo[1,2-c]pyrido[2,3-e]pyrimidin-5(3H)-one]"
9,469 nM,"O=C1N(Cc2ccc(Cl)cc2)c2cc(N3CCOCC3)cnc2C2=NCC(C3CCCCC3)N12 (stereo not shown) [Example 26, 6-(4-chlorobenzyl)-3-cyclohexyl-8-(morpholin-4-yl)-2,6-dihydroimidazo[1,2-c]pyrido[2,3-e]pyrimidin-5(3H)-one]"
10,375 nM,"COc1ccc(CN2C(=O)N3CC(c4ccccc4)N=C3c3ncc(N4CCOCC4)cc32)cc1 (stereo not shown) [Example 28, 6-(4-methoxybenzyl)-8-(morpholin-4-yl)-2-phenyl-2,6-dihydroimidazo[1,2-c]pyrido[2,3-e]pyrimidin-5(3H)-one]"
11,368 nM,"COc1ccc(CN2C(=O)N3C(=NCC3c3ccccc3)c3ncc(N4CCOCC4)cc32)cc1 (stereo not shown) [Example 29, 6-(4-methoxybenzyl)-8-(morpholin-4-yl)-3-phenyl-2,6-dihydroimidazo[1,2-c]pyrido[2,3-e]pyrimidin-5(3H)-one]"
12,350 nM,"CC(C)CC1CN2C(=O)N(Cc3ccc(Cl)cc3)c3cc(N4CCOCC4)cnc3C2=N1 (stereo not shown) [Example 30, 6-(4-chlorobenzyl)-2-(2-methylpropyl)-8-(morpholin-4-y1)-2,6-dihydroimidazo[1,2-c]pyrido[2,3-e]pyrimidin-5(3H)-one]"
13,229 nM,"CC(C)CC1CN=C2c3ncc(N4CCOCC4)cc3N(Cc3ccc(Cl)cc3)C(=O)N21 (stereo not shown) [Example 31, 6-(4-chlorobenzyl)-3-(2-methylpropyl)-8-(morpholin-4-yl)-2,6-dihydroimidazo[1,2-c]pyrido[2,3-e]pyrimidin-5(3H)-one]"
